Tested on: Holstein cows
Assay: Milk fatty acid composition after abomasal or ruminal infusion of SDA-enhanced soybean oil in dairy cows (gas chromatography)
Format: in vivo
Conditions: of the SDA present in the abomasally infused oil; range=36.8 to 41.9%
Description: In this Example, transgenic soybean oil containing SDA was either infused directly in the rumen or directly into the abomasum bypassing the rumen to examine the potential of using SDA-enhanced soybean oil to increase the milk fat content of omega-3 fatty acids in dairy cows and to determine the efficiency of SDA uptake from the digestive tract and transfer to milk fat.
Three multiparous, pregnant, rumen-fistulated Holstein cows averaging 267 days in lactation were assigned randomly to a 3×3 Latin square design. Treatments were: 1) control (no oil infusion); 2) abomasal infusion of SDA-enhanced SBO (SDA-abo) and 3) ruminal infusion of SDA-enhanced SBO (SDA-rum). Oil infusions (210 g/d) provided 57 g/d of stearidonic acid and infusion periods were 7 d with a 7 d washout between periods. […]
Cows were milked twice a day with two milk samples obtained at each milking. One milk sample was analyzed for major components (i.e., fat, protein, lactose) by infrared analysis. The second milk sample was analyzed for fatty acids with extraction, methylation and gas chromatographic analysis. Fatty acids were quantified using pure methyl ester standards and a butter oil reference standard was analyzed periodically to monitor column performance and correction factors for individual fatty acids. […]

- transfer efficiency of SDA to milk fat: 39.3%
SMILES: CC/C=C\C/C=C\C/C=C\C/C=C\CCCCC(=O)O [SDA, stearidonic acid]

— US20120308682A1, “RUMINANT FEED, PRODUCTS, AND METHODS COMPRISING BENEFICIAL FATTY ACIDS” (MONSANTO TECHNOLOGY LLC, priority 2009, published 2012)
